Tested on: MV-4-11 cells
Assay: Gene expression microarray analysis (Affymetrix PrimeView) and GSEA
Type: cell-based, human
Parameters: RFU PODN (11730768_x_at) / Fold change /veh PODN (11730768_x_at) / RFU LINC00158 (11744669_a_at) / Fold change /veh LINC00158 (11744669_a_at) / RFU DUSP10 (11751237_a_at) / Fold change /veh DUSP10 (11751237_a_at) / RFU ID3 (11757404_x_at) / Fold change /veh ID3 (11757404_x_at) / RFU PLEKHG5 (11737974_s_at) / Fold change /veh PLEKHG5 (11737974_s_at) / RFU LRRC4B (11730491_at) / Fold change /veh LRRC4B (11730491_at) / RFU GIMAP4 (11747438_a_at) / Fold change /veh GIMAP4 (11747438_a_at) / RFU KRT8 (11758183_x_at) / Fold change /veh KRT8 (11758183_x_at) / RFU CNN1 (11734310_a_at) / Fold change /veh CNN1 (11734310_a_at) / RFU VPS37D (11726825_at) / Fold change /veh VPS37D (11726825_at) / RFU C10orf10 (11716522_x_at) / Fold change /veh C10orf10 (11716522_x_at) / RFU KIR2DL2 /// KIR2DL4 /// KIR2DL5A /// KIR2DL5B /// KIR2DS1 /// KIR2DS2 /// KIR2DS3 /// KIR2DS4 /// KIR3DL3 /// KIR3DL3 /// KIR3DS1 (11738374_at) / Fold change /veh KIR2DL2 /// KIR2DL4 /// KIR2DL5A /// KIR2DL5B /// KIR2DS1 /// KIR2DS2 /// KIR2DS3 /// KIR2DS4 /// KIR3DL3 /// KIR3DL3 /// KIR3DS1 (11738374_at) / RFU C1QL1 (11718748_at) / Fold change /veh C1QL1 (11718748_at) / RFU TMPRSS4 (11747572_a_at) / Fold change /veh TMPRSS4 (11747572_a_at) / RFU HAMP (11756126_x_at) / Fold change /veh HAMP (11756126_x_at) / RFU RNFT2 (11725882_a_at) / Fold change /veh RNFT2 (11725882_a_at) / RFU NR4A2 (11747474_a_at) / Fold change /veh NR4A2 (11747474_a_at) / RFU ABCC12 (11746883_a_at) / Fold change /veh ABCC12 (11746883_a_at) / RFU TMEM136 (11760407_x_at) / Fold change /veh TMEM136 (11760407_x_at) / RFU CLDN22 /// WWC2 (11732394_at) / Fold change /veh CLDN22 /// WWC2 (11732394_at) / RFU HLA-DPB1 (11760878_x_at) / Fold change /veh HLA-DPB1 (11760878_x_at) / RFU SPINT1 (11716480_a_at) / Fold change /veh SPINT1 (11716480_a_at) / RFU GAP43 (11754022_s_at) / Fold change /veh GAP43 (11754022_s_at) / RFU A4GNT (11735810_at) / Fold change /veh A4GNT (11735810_at) / RFU PRB3 (11715151_x_at) / Fold change /veh PRB3 (11715151_x_at) / RFU TUBB4B (11761932_at) / Fold change /veh TUBB4B (11761932_at) / RFU CAPN14 (11732068_a_at) / Fold change /veh CAPN14 (11732068_a_at) / RFU TMCC2 (11721928_a_at) / Fold change /veh TMCC2 (11721928_a_at) / RFU IRGQ (11745062_a_at) / Fold change /veh IRGQ (11745062_a_at) / RFU FAM174B (11720279_a_at) / Fold change /veh FAM174B (11720279_a_at) / RFU TMPRSS4 (11748680_a_at) / Fold change /veh TMPRSS4 (11748680_a_at) / RFU FAM212B (11763350_a_at) / Fold change /veh FAM212B (11763350_a_at) / RFU PLEKHG5 (11743358_a_at) / Fold change /veh PLEKHG5 (11743358_a_at) / RFU ZSCAN30 (11745921_a_at) / Fold change /veh ZSCAN30 (11745921_a_at) / RFU CMKLR1 (11741424_a_at) / Fold change /veh CMKLR1 (11741424_a_at) / RFU LOC101060620 /// MAPK8IP1 (11723275_at) / Fold change /veh LOC101060620 /// MAPK8IP1 (11723275_at) / RFU SPTSSB (11747773_x_at) / Fold change /veh SPTSSB (11747773_x_at) / RFU PRSS12 (11739890_at) / Fold change /veh PRSS12 (11739890_at) / RFU BIN1 (11741810_x_at) / Fold change /veh BIN1 (11741810_x_at) / RFU WNT11 (11732464_a_at) / Fold change /veh WNT11 (11732464_a_at) / RFU C10orf10 (11716521_a_at) / Fold change /veh C10orf10 (11716521_a_at) / RFU C5orf56 (11738089_at) / Fold change /veh C5orf56 (11738089_at) / RFU CYB561 (11721691_x_at) / Fold change /veh CYB561 (11721691_x_at) / RFU ANKRD19P (11752326_a_at) / Fold change /veh ANKRD19P (11752326_a_at) / RFU OR2T12 /// OR2T33 /// OR2T8 (11738714_s_at) / Fold change /veh OR2T12 /// OR2T33 /// OR2T8 (11738714_s_at) / RFU VCAN (11748164_a_at) / Fold change /veh VCAN (11748164_a_at) / RFU JSRP1 (11732532_at) / Fold change /veh JSRP1 (11732532_at) / RFU KRTAP10-11 (11738290_x_at) / Fold change /veh KRTAP10-11 (11738290_x_at) / RFU MYO3A (11730013_a_at) / Fold change /veh MYO3A (11730013_a_at) / RFU EBF3 (11725865_a_at) / Fold change /veh EBF3 (11725865_a_at) / RFU CAMK2N1 (11719241_x_at) / Fold change /veh CAMK2N1 (11719241_x_at) / RFU C5orf56 (11738088_a_at) / Fold change /veh C5orf56 (11738088_a_at) / RFU OLFML3 (11715873_a_at) / Fold change /veh OLFML3 (11715873_a_at) / RFU LOC100653217 /// NTM (11731650_a_at) / Fold change /veh LOC100653217 /// NTM (11731650_a_at) / RFU MAPK11 (11762145_a_at) / Fold change /veh MAPK11 (11762145_a_at) / RFU FIZ1 (11724087_x_at) / Fold change /veh FIZ1 (11724087_x_at) / RFU OASL (11726364_x_at) / Fold change /veh OASL (11726364_x_at) / RFU SOX15 (11748057_x_at) / Fold change /veh SOX15 (11748057_x_at) / RFU CD79A (11719716_a_at) / Fold change /veh CD79A (11719716_a_at) / RFU HIST1H1D (11736915_at) / Fold change /veh HIST1H1D (11736915_at) / RFU CASKIN2 (11723855_a_at) / Fold change /veh CASKIN2 (11723855_a_at) / RFU LOC730098 (11760151_x_at) / Fold change /veh LOC730098 (11760151_x_at) / RFU OR4N2 (11742367_at) / Fold change /veh OR4N2 (11742367_at) / RFU PRRT2 (11749266_a_at) / Fold change /veh PRRT2 (11749266_a_at) / RFU SNX32 (11753110_a_at) / Fold change /veh SNX32 (11753110_a_at) / RFU CDHR5 (11726645_a_at) / Fold change /veh CDHR5 (11726645_a_at) / RFU RCAN1 (11760418_a_at) / Fold change /veh RCAN1 (11760418_a_at) / RFU FAM167A (11723789_a_at) / Fold change /veh FAM167A (11723789_a_at) / RFU FAM26E (11764081_at) / Fold change /veh FAM26E (11764081_at) / RFU ISYNA1 (11749810_s_at) / Fold change /veh ISYNA1 (11749810_s_at) / RFU ACY1 (11761880_at) / Fold change /veh ACY1 (11761880_at) / RFU 11764098_at / Fold change /veh 11764098_at / RFU SAMD14 (11745864_x_at) / Fold change /veh SAMD14 (11745864_x_at) / RFU NPB (11741838_a_at) / Fold change /veh NPB (11741838_a_at) / RFU TMPRSS6 (11731388_a_at) / Fold change /veh TMPRSS6 (11731388_a_at) / RFU KRTAP10-2 (11738614_at) / Fold change /veh KRTAP10-2 (11738614_at) / RFU ARHGAP8 /// PRR5-ARHGAP8 (11727945_x_at) / Fold change /veh ARHGAP8 /// PRR5-ARHGAP8 (11727945_x_at) / RFU KRTAP5-7 /// NADSYN1 (11734609_at) / Fold change /veh KRTAP5-7 /// NADSYN1 (11734609_at) / RFU RASL12 (11751679_a_at) / Fold change /veh RASL12 (11751679_a_at) / RFU CDKN2B (11736163_a_at) / Fold change /veh CDKN2B (11736163_a_at) / RFU PRF1 (11729649_at) / Fold change /veh PRF1 (11729649_at) / RFU, ZNF638 /// ZNF638-IT1 / Fold change vs veh, ZNF638 /// ZNF638-IT1 / RFU, PANK3 / Fold change vs veh, PANK3 / RFU, SH3YL1 / Fold change vs veh, SH3YL1 / RFU, ZEB2 / Fold change vs veh, ZEB2 / RFU, NRIP1 / Fold change vs veh, NRIP1 / RFU, PTTG1IP / Fold change vs veh, PTTG1IP / RFU, CAPN2 / Fold change vs veh, CAPN2 / RFU, MED14 / Fold change vs veh, MED14 / RFU, SNORA58 / Fold change vs veh, SNORA58 / RFU, C1orf63 / Fold change vs veh, C1orf63 / RFU, LRRFIP1 / Fold change vs veh, LRRFIP1 / RFU, NDUFAF7 / Fold change vs veh, NDUFAF7 / RFU, SLC12A2 / Fold change vs veh, SLC12A2 / RFU, IBTK / Fold change vs veh, IBTK / RFU, ESF1 / Fold change vs veh, ESF1 / Fold change vs veh, TMEM50B / RFU, TAOK1 / Fold change vs veh, TAOK1 / RFU, ACBD3 / Fold change vs veh, ACBD3 / RFU, TMA16 / Fold change vs veh, TMA16 / RFU, RWDD3 / Fold change vs veh, RWDD3 / RFU, BCAT1 / Fold change vs veh, BCAT1 / RFU, EDEM3 / Fold change vs veh, EDEM3 / RFU, TMEM33 / Fold change vs veh, TMEM33 / RFU, WDR75 / Fold change vs veh, WDR75 / RFU, AHCTF1 / Fold change vs veh, AHCTF1 / RFU, TFRC / Fold change vs veh, TFRC / RFU, ZDHHC17 / Fold change vs veh, ZDHHC17 / RFU, NOM1 / Fold change vs veh, NOM1 / RFU, ARL8B / Fold change vs veh, ARL8B / RFU, ZBTB11 / Fold change vs veh, ZBTB11 / RFU, TAMM41 / Fold change vs veh, TAMM41 / RFU, KIAA1704 /// LOC100996395 / Fold change vs veh, KIAA1704 /// LOC100996395 / RFU, ING1 / Fold change vs veh, ING1 / RFU, TRMT61B / Fold change vs veh, TRMT61B / RFU, FUBP3 / Fold change vs veh, FUBP3 / RFU, TP53 / Fold change vs veh, TP53 / RFU, TNKS2 / Fold change vs veh, TNKS2 / RFU, ZFP14 / Fold change vs veh, ZFP14 / RFU, ACTR2 / Fold change vs veh, ACTR2 / RFU, PPP3R1 / Fold change vs veh, PPP3R1 / RFU, PIK3R1 / Fold change vs veh, PIK3R1 / RFU, HNRNPA1 / Fold change vs veh, HNRNPA1 / RFU, RNF170 / Fold change vs veh, RNF170 / RFU, ZNF28 / Fold change vs veh, ZNF28 / RFU, RNGTT / Fold change vs veh, RNGTT / RFU, OGT / Fold change vs veh, OGT / RFU, BRD1 / Fold change vs veh, BRD1 / RFU, MARS / Fold change vs veh, MARS / RFU, ZNF655 / Fold change vs veh, ZNF655 / RFU, FAHD1 / Fold change vs veh, FAHD1 / RFU, BDP1 / Fold change vs veh, BDP1 / RFU, LRRCC1 / Fold change vs veh, LRRCC1 / RFU, ARID1A / Fold change vs veh, ARID1A / RFU, ZNF146 / Fold change vs veh, ZNF146 / RFU, ZNF330 / Fold change vs veh, ZNF330 / RFU, GPN3 / Fold change vs veh, GPN3 / RFU, C9orf123 / Fold change vs veh, C9orf123 / RFU, N4BP2L2 / Fold change vs veh, N4BP2L2 / RFU, ARFIP1 / Fold change vs veh, ARFIP1 / RFU, FAM179B / Fold change vs veh, FAM179B / RFU, BCL10 / Fold change vs veh, BCL10 / RFU, UHRF1BP1L / Fold change vs veh, UHRF1BP1L / RFU, BET1 / Fold change vs veh, BET1 / RFU, CNOT2 / Fold change vs veh, CNOT2 / RFU, ZNF268 / Fold change vs veh, ZNF268 / Fold change vs veh, ZNF507 / RFU, DGCR2 / Fold change vs veh, DGCR2 / RFU, WDSUB1 / Fold change vs veh, WDSUB1 / Fold change vs veh, HSP90B1 /// MIR3652 / RFU, ADSS / Fold change vs veh, ADSS / RFU, GK / Fold change vs veh, GK / RFU, ZNF148 / Fold change vs veh, ZNF148 / RFU, TAF9 / Fold change vs veh, TAF9 / RFU, SLC1A5 / Fold change vs veh, SLC1A5 / RFU, SLMO2 / Fold change vs veh, SLMO2 / RFU, ABCC4 / Fold change vs veh, ABCC4 / RFU, LOC101060439 /// RAP1B / Fold change vs veh, LOC101060439 /// RAP1B / RFU, RFX7 / Fold change vs veh, RFX7 / RFU, GTPBP10 / Fold change vs veh, GTPBP10 / RFU, CNEP1R1 / Fold change vs veh, CNEP1R1 / RFU, BIVM-ERCC5 /// ERCC5 / Fold change vs veh, BIVM-ERCC5 /// ERCC5 / RFU, ILF3 / Fold change vs veh, ILF3 / RFU 11762660_at / Fold change /veh 11762660_at / RFU VCAN (11757783_s_at) / Fold change /veh VCAN (11757783_s_at) / RFU DDX43 (11728927_at) / Fold change /veh DDX43 (11728927_at) / RFU KRT8 (11758188_x_at) / Fold change /veh KRT8 (11758188_x_at) / RFU NKD1 (11759106_at) / Fold change /veh NKD1 (11759106_at) / RFU SRD5A1 (11742802_a_at) / Fold change /veh SRD5A1 (11742802_a_at) / RFU TPSAB1 /// TPSB2 (11721975_s_at) / Fold change /veh TPSAB1 /// TPSB2 (11721975_s_at) / RFU GSTM3 (11746129_a_at) / Fold change /veh GSTM3 (11746129_a_at) / RFU IL23R (11737362_x_at) / Fold change /veh IL23R (11737362_x_at) / RFU TMEM51 (11727254_a_at) / Fold change /veh TMEM51 (11727254_a_at) / RFU PIWIL2 (11732686_x_at) / Fold change /veh PIWIL2 (11732686_x_at) / RFU ORM1 (11744905_x_at) / Fold change /veh ORM1 (11744905_x_at) / RFU CCDC152 (11743942_at) / Fold change /veh CCDC152 (11743942_at) / RFU ECM1 (11717891_a_at) / Fold change /veh ECM1 (11717891_a_at) / RFU IL23R (11748794_a_at) / Fold change /veh IL23R (11748794_a_at) / RFU TNFAIP8L3 (11732012_x_at) / Fold change /veh TNFAIP8L3 (11732012_x_at) / RFU MBOAT4 (11741988_at) / Fold change /veh MBOAT4 (11741988_at) / RFU 11764193_at / Fold change /veh 11764193_at / RFU TMEM53 (11763286_at) / Fold change /veh TMEM53 (11763286_at) / RFU MAGEB2 (11727129_at) / Fold change /veh MAGEB2 (11727129_at) / RFU TMEM200A (11744735_a_at) / Fold change /veh TMEM200A (11744735_a_at) / RFU CCDC152 (11751479_a_at) / Fold change /veh CCDC152 (11751479_a_at) / RFU FAM211A (11726209_a_at) / Fold change /veh FAM211A (11726209_a_at) / RFU RGS16 (11746705_a_at) / Fold change /veh RGS16 (11746705_a_at) / RFU VCAN (11755009_s_at) / Fold change /veh VCAN (11755009_s_at) / RFU RHOB (11743442_s_at) / Fold change /veh RHOB (11743442_s_at) / RFU RGS16 (11720943_a_at) / Fold change /veh RGS16 (11720943_a_at) / RFU RGS16 (11720944_at) / Fold change /veh RGS16 (11720944_at) / RFU, VPS4B / Fold change vs veh, VPS4B / RFU, CREB1 / Fold change vs veh, CREB1 / RFU, DNAJC13 / Fold change vs veh, DNAJC13 / RFU, GNAQ / Fold change vs veh, GNAQ / RFU, CDK5R1 / Fold change vs veh, CDK5R1 / RFU, ZRANB3 / Fold change vs veh, ZRANB3 / RFU, CUL4A / Fold change vs veh, CUL4A / RFU, CCNY / Fold change vs veh, CCNY / RFU, UFL1 / Fold change vs veh, UFL1 / RFU, COG3 / Fold change vs veh, COG3 / RFU, DIAPH2 / Fold change vs veh, DIAPH2 / RFU, SKA2 / Fold change vs veh, SKA2 / RFU, AFF3 / Fold change vs veh, AFF3 / RFU, LMF1 / Fold change vs veh, LMF1 / RFU, IPO11 / Fold change vs veh, IPO11 / RFU, DFFB / Fold change vs veh, DFFB / RFU, FOXP1 / Fold change vs veh, FOXP1 / RFU, CARD8 / Fold change vs veh, CARD8 / RFU, STRN3 / Fold change vs veh, STRN3 / RFU, ADK / Fold change vs veh, ADK / RFU, RASSF2 / Fold change vs veh, RASSF2 / RFU, WIPF1 / Fold change vs veh, WIPF1 / RFU, LARP1B / Fold change vs veh, LARP1B / RFU, RASA1 / Fold change vs veh, RASA1 / RFU, RB1 / Fold change vs veh, RB1 / RFU, PPFIA1 / Fold change vs veh, PPFIA1 / RFU, MAT2A / Fold change vs veh, MAT2A / RFU, CCT5 / Fold change vs veh, CCT5 / RFU, WDR92 / Fold change vs veh, WDR92 / RFU, CUX1 / Fold change vs veh, CUX1 / RFU, TTC7A / Fold change vs veh, TTC7A / RFU, TMEM135 / Fold change vs veh, TMEM135 / RFU, DEPTOR / Fold change vs veh, DEPTOR / RFU, CPM / Fold change vs veh, CPM / RFU, DNAJB6 / Fold change vs veh, DNAJB6 / RFU, CACNA2D3 / Fold change vs veh, CACNA2D3 / RFU, DTX4 / Fold change vs veh, DTX4 / RFU, TFCP2 / Fold change vs veh, TFCP2 / RFU, GMCL1 /// GMCL1P1 / Fold change vs veh, GMCL1 /// GMCL1P1 / RFU, AEBP2 / Fold change vs veh, AEBP2 / RFU, SNHG1 /// SNORD22 /// SNORD25 /// SNORD26 /// SNORD27 /// SNORD28 /// SNORD29 /// SNORD31 / Fold change vs veh, SNHG1 /// SNORD22 /// SNORD25 /// SNORD26 /// SNORD27 /// SNORD28 /// SNORD29 /// SNORD31 / Fold change (Aza/veh), C12orf56 (ProbeSet 11735607_a_at) / Fold change (ACY-1035/veh), C12orf56 (ProbeSet 11735607_a_at) / Fold change (Aza/veh), FGFR1OP (ProbeSet 11751329_s_at) / Fold change (ACY-1035/veh), FGFR1OP (ProbeSet 11751329_s_at) / Fold change (Aza/veh), VPS36 (ProbeSet 11739960_a_at) / Fold change (ACY-1035/veh), VPS36 (ProbeSet 11739960_a_at) / RFU SYPL1 (11715823_x_at) / Fold change /veh SYPL1 (11715823_x_at) / RFU IGFBP7 (11715501_s_at) / Fold change /veh IGFBP7 (11715501_s_at) / RFU REEP3 (11722064_at) / Fold change /veh REEP3 (11722064_at) / RFU IGLL1 (11728026_x_at) / Fold change /veh IGLL1 (11728026_x_at): dose or concentration left out as unconfirmed
Details: ProbeSet 11755070_a_at; LIST D

Nc1ncn([C@@H]2O[C@H](CO)[C@@H](O)[C@H]2O)c(=O)n1 [azacitidine]
Fold change vs veh, CARD8: 0.80

Source: PMC5218480 (PLoS ONE, 2017)
